Reference: US20100267561A1, “HERBICIDAL PYRIDAZINONE DERIVATIVES” (priority 2007, published 2010)
Like-named read-outs stand apart in the source and are kept apart here.

Tests used:
Format in all cases: in vivo
[1] = test system: eastern black (E.B.) nightshade (Solanum ptycanthum); test: Test B pre-/postemergence plant response; conditions: Solanum, pre-emergence, Preemergence, read-out: Plant response rating, Nightshade, E. B.
Description: (§1) Seeds of plant species selected from blackgrass (Alopecurus myosuroides), downy bromegrass (Bromus tectorum), green foxtail (Setaria viridis), Italian ryegrass (Lolium multiflorum), wheat (Triticum aestivum), wild oat (Avena fatua), catchweed bedstraw (Galium aparine), bermudagrass (Cynodon dactylon), surinam grass (Brachiaria decumbens), cocklebur (Xanthium strumarium), corn (Zea mays), large crabgrass (Digitaria sanguinalis), woolly cupgrass (Eriochloa villosa), giant foxtail (Setaria faberii), goosegrass (Eleusine indica), johnsongrass (Sorghum halepense), kochia (Kochia scoparia), lambsquarters (Chenopodium album), morningglory (Ipomoea coccinea), eastern black (E.B.) nightshade (Solanum ptycanthum), yellow nutsedge (Cyperus esculentus), pigweed (Amaranthus retroflexus), common ragweed (Ambrosia elation), Russian thistle (Salsola iberica), soybean (Glycine max), common (oilseed) sunflower (Helianthus annuus), and velvetleaf (Abutilon theophrasti) were planted and treated preemergence with test chemicals formulated in a non-phytotoxic solvent mixture which included a surfactant.
(§2) At the same time, plants selected from these crop and weed species and also winter barley (Hordeum vulgare), canarygrass (Phalaris minor), chickweed (Stellaria media) and windgrass (Apera spica-venti) were treated with postemergence applications of some of the test chemicals formulated in the same manner. Plants ranged in height from 2 to 18 cm (1- to 4-leaf stage) for postemergence treatments.
(§3) Plant species in the flooded paddy test consisted of rice (Oryza sativa), umbrella sedge (Cyperus difformis), ducksalad (Heteranthera limosa) and barnyardgrass (Echinochloa crus-galli) grown to the 2-leaf stage for testing. At time of treatment, test pots were flooded to 3 cm above the soil surface, treated by application of test compounds directly to the paddy water, and then maintained at that water depth for the duration of the test. Treated plants and controls were maintained in a greenhouse for 13 to 15 days, after which time all species were compared to controls and visually evaluated. Plant response ratings, summarized in Table B, are based on a scale of 0 to 100 where 0 is no effect and 100 is complete control. A dash (-) response means no test result.

soybean (Glycine max) = test: Test B pre-/postemergence plant response; conditions: Glycine max, read-out: Plant response rating, Soybean; for plant injury at 31 g/ha: 31 g ai/ha, 100 complete control; for plant injury at 250 g/ha: 250 g ai/ha
Description: as §1, §2, §3

[2] = test system: yellow nutsedge (Cyperus esculentus); test: Test B pre-/postemergence plant response; conditions: Cyperus, read-out: Plant response rating, Nutsedge, Yellow; for pest or weed control at 31 g/ha: 31 g ai/ha, 100 complete control; for pest or weed control at 62 g/ha: 62 g ai/ha; for pest or weed control at 250 g/ha: 250 g ai/ha
Description: as §1, §2, §3

[3] = test system: common ragweed (Ambrosia elation); test: Test B pre-/postemergence plant response; conditions: Ambrosia, read-out: Plant response rating, Ragweed; for pest or weed control at 31 g/ha: 31 g ai/ha, 100 complete control; for pest or weed control at 62 g/ha: 62 g ai/ha; for pest or weed control at 62 g/ha / pest or weed control at 125 g/ha / pest or weed control at 250 g/ha: scale 0 to 100; for pest or weed control at 125 g/ha: 125 g ai/ha; for pest or weed control at 250 g/ha: 250 g ai/ha
Description: as §1, §2, §3

kochia (Kochia scoparia) = test: Test B pre-/postemergence plant response
Description: as §1, §2, §3

[4] = test system: cocklebur (Xanthium strumarium); test: Test B pre-/postemergence plant response; conditions: Xanthium strumarium, read-out: Plant response rating, Cocklebur; for pest or weed control at 31 g/ha: 31 g ai/ha, 100 complete control; for pest or weed control at 62 g/ha: 62 g ai/ha; for pest or weed control at 62 g/ha / pest or weed control at 125 g/ha / pest or weed control at 250 g/ha: scale 0 to 100; for pest or weed control at 125 g/ha: 125 g ai/ha; for pest or weed control at 250 g/ha: 250 g ai/ha
Description: as §1, §2, §3

[5] = test system: Italian ryegrass (Lolium multiflorum); test: Test B pre-/postemergence plant response; conditions: Lolium multiflorum, read-out: Plant response rating, Ryegrass, Italian; for pest or weed control at 31 g/ha: 31 g ai/ha, 100 complete control; for pest or weed control at 62 g/ha: 62 g ai/ha; for pest or weed control at 62 g/ha / pest or weed control at 125 g/ha / pest or weed control at 250 g/ha: scale 0 to 100; for pest or weed control at 125 g/ha: 125 g ai/ha; for pest or weed control at 250 g/ha: 250 g ai/ha
Description: as §1, §2, §3

[6] = test system: pigweed (Amaranthus retroflexus); test: Test B pre-/postemergence plant response; conditions: Amaranthus retroflexus, read-out: Plant response rating, Pigweed; for pest or weed control at 62 g/ha: 62 g ai/ha; for pest or weed control at 62 g/ha / pest or weed control at 125 g/ha / pest or weed control at 250 g/ha: scale 0 to 100; for pest or weed control at 125 g/ha: 125 g ai/ha; for pest or weed control at 250 g/ha: 250 g ai/ha
Description: as §1, §2, §3

[7] = test system: woolly cupgrass (Eriochloa villosa); test: Test B pre-/postemergence plant response; conditions: Eriochloa villosa, read-out: Plant response rating, Cupgrass, Woolly; for pest or weed control at 31 g/ha: 31 g ai/ha, 100 complete control; for pest or weed control at 62 g/ha: 62 g ai/ha; for pest or weed control at 62 g/ha / pest or weed control at 125 g/ha / pest or weed control at 250 g/ha: scale 0 to 100; for pest or weed control at 125 g/ha: 125 g ai/ha; for pest or weed control at 250 g/ha: 250 g ai/ha
Description: as §1, §2, §3

[8] = test system: goosegrass (Eleusine indica); test: Test B pre-/postemergence plant response; conditions: Eleusine indica, read-out: Plant response rating, Goosegrass; for pest or weed control at 31 g/ha: 31 g ai/ha, 100 complete control; for pest or weed control at 62 g/ha: 62 g ai/ha; for pest or weed control at 62 g/ha / pest or weed control at 125 g/ha / pest or weed control at 250 g/ha: scale 0 to 100; for pest or weed control at 125 g/ha: 125 g ai/ha; for pest or weed control at 250 g/ha: 250 g ai/ha
Description: as §1, §2, §3

[9] = test system: wheat (Triticum aestivum); test: Test A pre-/postemergence plant response; conditions: Triticum aestivum, 240 h, 1000 g ai/ha, read-out: Plant response rating, Wheat
How it was run: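 Soil: loam blended with sand. Formulation: non-phytotoxic solvent mixture plus surfactant, applied as preemergence directed soil spray and as postemergence spray. Scoring: visual, 0 no effect to 100 complete control, roughly 10 days post-treatment in greenhouse.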

[10] = post-emergence, Postemergence, scale 0 to 100, 0 no effect
[11] = post-emergence, Postemergence, 125 g ai/ha, scale 0 to 100
[12] = post-emergence, Postemergence, scale 0 to 100
[13] = pre-emergence, Preemergence, 0 to 100 scale, 0 no effect
[14] = pre-emergence, Preemergence, scale 0 to 100

Cc1cc(-c2ccc(C(F)(F)F)cc2)nn1-c1c(O)cnn(C)c1=O [Compound 1, 5-hydroxy-2-methyl-4-[5-methyl-3-[4-(trifluoromethyl)phenyl]-1H-pyrazol-1-yl]-3(2H)-pyridazinone]
pest or weed control at 31 g/ha ([1]; 31 g ai/ha, 0 to 100 scale, 0 no effect, 100 complete control): 0%
pest or weed control at 62 g/ha ([1]; 62 g ai/ha, scale 0 to 100): 0%
pest or weed control at 125 g/ha ([1]; 125 g ai/ha, scale 0 to 100): 0%
pest or weed control at 250 g/ha ([1]; 250 g ai/ha, scale 0 to 100): 0%
plant injury at 31 g/ha (soybean (Glycine max); [10]): 0%
plant injury at 62 g/ha (soybean (Glycine max); post-emergence, Postemergence, 62 g ai/ha, scale 0 to 100): 25%
plant injury at 125 g/ha (soybean (Glycine max); [11]): 50%
plant injury at 250 g/ha (soybean (Glycine max); [12]): 60%
plant injury at 31 g/ha (soybean (Glycine max); [13]): 0%
plant injury at 250 g/ha (soybean (Glycine max); [14]): 0%
pest or weed control at 31 g/ha [2, 10]: 0%
pest or weed control at 62 g/ha [2, 12]: 0%
pest or weed control at 125 g/ha [2, 11]: 0%
pest or weed control at 250 g/ha [2, 12]: 0%
pest or weed control at 31 g/ha [2, 13]: 0%
pest or weed control at 62 g/ha [2, 14]: 0%
pest or weed control at 250 g/ha [2, 14]: 0%
pest or weed control at 31 g/ha [3, 10]: 0%
pest or weed control at 62 g/ha ([3]; post-emergence, Postemergence): 0%
pest or weed control at 125 g/ha ([3]; post-emergence, Postemergence): 50%
pest or weed control at 250 g/ha ([3]; post-emergence, Postemergence): 55%
pest or weed control at 31 g/ha [3, 13]: 0%
pest or weed control at 62 g/ha ([3]; pre-emergence, Preemergence): 0%
pest or weed control at 125 g/ha ([3]; pre-emergence, Preemergence): 0%
pest or weed control at 250 g/ha ([3]; pre-emergence, Preemergence): 0%
Plant response rating, Kochia (kochia (Kochia scoparia); Postemergence, 31 g ai/ha, scale 0 to 100, 0 no effect, 100 complete control): 0
Plant response rating, Kochia (kochia (Kochia scoparia); Postemergence, 62 g ai/ha, scale 0 to 100): 0
Plant response rating, Kochia (kochia (Kochia scoparia); Postemergence, 125 g ai/ha, scale 0 to 100): 0
Plant response rating, Kochia (kochia (Kochia scoparia); Postemergence, 250 g ai/ha, scale 0 to 100): 20
Plant response rating, Kochia (kochia (Kochia scoparia); Preemergence, 62 g ai/ha, scale 0 to 100): 0
Plant response rating, Kochia (kochia (Kochia scoparia); Preemergence, 125 g ai/ha, scale 0 to 100): 20
pest or weed control at 31 g/ha [4, 10]: 0%
pest or weed control at 62 g/ha ([4]; post-emergence, Postemergence): 0%
pest or weed control at 125 g/ha ([4]; post-emergence, Postemergence): 0%
pest or weed control at 250 g/ha ([4]; post-emergence, Postemergence): 0%
pest or weed control at 31 g/ha [4, 13]: 0%
pest or weed control at 62 g/ha ([4]; pre-emergence, Preemergence): 0%
pest or weed control at 125 g/ha ([4]; pre-emergence, Preemergence): 0%
pest or weed control at 250 g/ha ([4]; pre-emergence, Preemergence): 0%
pest or weed control at 31 g/ha [5, 10]: 95%
pest or weed control at 62 g/ha ([5]; post-emergence, Postemergence): 100%
pest or weed control at 125 g/ha ([5]; post-emergence, Postemergence): 100%
pest or weed control at 250 g/ha ([5]; post-emergence, Postemergence): 100%
pest or weed control at 31 g/ha [5, 13]: 80%
pest or weed control at 62 g/ha ([5]; pre-emergence, Preemergence): 100%
pest or weed control at 125 g/ha ([5]; pre-emergence, Preemergence): 100%
pest or weed control at 250 g/ha ([5]; pre-emergence, Preemergence): 100%
pest or weed control at 31 g/ha ([6]; post-emergence, Postemergence, 31 g ai/ha, scale 0 to 100, 0 no effect, 100 complete control): 0%
pest or weed control at 62 g/ha ([6]; post-emergence, Postemergence): 0%
pest or weed control at 125 g/ha ([6]; post-emergence, Postemergence): 0%
pest or weed control at 250 g/ha ([6]; post-emergence, Postemergence): 40%
pest or weed control at 62 g/ha ([6]; pre-emergence, Preemergence): 0%
pest or weed control at 125 g/ha ([6]; pre-emergence, Preemergence): 0%
pest or weed control at 250 g/ha ([6]; pre-emergence, Preemergence): 0%
pest or weed control at 31 g/ha [7, 10]: 95%
pest or weed control at 62 g/ha ([7]; post-emergence, Postemergence): 100%
pest or weed control at 125 g/ha ([7]; post-emergence, Postemergence): 100%
pest or weed control at 250 g/ha ([7]; post-emergence, Postemergence): 100%
pest or weed control at 31 g/ha [7, 13]: 85%
pest or weed control at 62 g/ha ([7]; pre-emergence, Preemergence): 100%
pest or weed control at 125 g/ha ([7]; pre-emergence, Preemergence): 100%
pest or weed control at 250 g/ha ([7]; pre-emergence, Preemergence): 100%
pest or weed control at 31 g/ha [8, 10]: 30%
pest or weed control at 62 g/ha ([8]; post-emergence, Postemergence): 30%
pest or weed control at 125 g/ha ([8]; post-emergence, Postemergence): 50%
pest or weed control at 250 g/ha ([8]; post-emergence, Postemergence): 85%
pest or weed control at 31 g/ha [8, 13]: 50%
pest or weed control at 62 g/ha ([8]; pre-emergence, Preemergence): 50%
pest or weed control at 125 g/ha ([8]; pre-emergence, Preemergence): 100%
pest or weed control at 250 g/ha ([8]; pre-emergence, Preemergence): 100%
plant injury at 1000 g/ha ([9]; post-emergence, Postemergence, 0 to 100 scale, 0 no effect, 100 complete control): 100%
plant injury at 1000 g/ha ([9]; pre-emergence, Preemergence, 0 to 100 scale (0 no effect, 100 complete control)): 90%
